Test results as given in PubChem BioAssay AID1963856 (Molecular Pharmacology Branch, DTP, NCI, 2024).
pIC50: −log10 of the molar value.

System: LG0567-F671-PDC KRAS tumor spheroid viability
Assay: Anticancer human tumor LG0567-F671-PDC patient-derived lung adenocarcinoma cell line growth inhibition [KRAS2]
Conditions: spheroids with HUVEC and MSC; for pIC50: curve of first compound; for viability, T/C: stronger effect = lower value
Outline: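 Combination screen of spheroid viability in tumor-cell co-cultures with endothelial (HUVEC) and mesenchymal stem cell stroma. Each agent was tested in half-log dilutions, topping at clinical Cmax or at 10 microM without a known Cmax.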

[1] = second compound 0.1 µM, first compound 0.0316 µM
[2] = second compound 0.1 µM, first compound 0.1 µM
[3] = second compound 0.1 µM, first compound 0.316 µM
[4] = second compound 0.1 µM, first compound 1 µM
[5] = second compound 0.1 µM, first compound 3.16 µM
[6] = second compound 0.1 µM, first compound 10 µM
[7] = second compound 0.316 µM, first compound 0.0316 µM
[8] = second compound 0.316 µM, first compound 0.1 µM
[9] = second compound 0.316 µM, first compound 0.316 µM
[10] = second compound 0.316 µM, first compound 1 µM
[11] = second compound 0.316 µM, first compound 3.16 µM
[12] = second compound 0.316 µM, first compound 10 µM
[13] = second compound 1 µM, first compound 0.0316 µM
[14] = second compound 1 µM, first compound 0.1 µM
[15] = second compound 1 µM, first compound 0.316 µM
[16] = second compound 1 µM, first compound 1 µM
[17] = second compound 1 µM, first compound 3.16 µM
[18] = second compound 1 µM, first compound 10 µM
[19] = second compound 3.16 µM, first compound 0.0316 µM
[20] = second compound 3.16 µM, first compound 0.1 µM
[21] = second compound 3.16 µM, first compound 0.316 µM
[22] = second compound 3.16 µM, first compound 1 µM
[23] = second compound 3.16 µM, first compound 3.16 µM
[24] = second compound 3.16 µM, first compound 10 µM
[25] = second compound 10 µM, first compound 0.0316 µM
[26] = second compound 10 µM, first compound 0.1 µM
[27] = second compound 10 µM, first compound 0.316 µM
[28] = second compound 10 µM, first compound 1 µM
[29] = second compound 10 µM, first compound 3.16 µM
[30] = second compound 10 µM, first compound 10 µM
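Note: drug exposure lasted seven days after spheroids formed for three days.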
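Throughout, for viability, T/C: 100% = DMSO vehicle control viability.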

| Compound | pIC50 (second compound 0.1 µM) | pIC50 (second compound 0.316 µM) | pIC50 (second compound 1 µM) | pIC50 (second compound 3.16 µM) | pIC50 (second compound 10 µM) | viability, T/C [1] [%] | viability, T/C [2] [%] | viability, T/C [3] [%] | viability, T/C [4] [%] | viability, T/C [5] [%] | viability, T/C [6] [%] | viability, T/C [7] [%] | viability, T/C [8] [%] | viability, T/C [9] [%] | viability, T/C [10] [%] | viability, T/C [11] [%] | viability, T/C [12] [%] | viability, T/C [13] [%] | viability, T/C [14] [%] | viability, T/C [15] [%] | further results |
| --- | --- | --- | --- | --- | --- | --- | --- | --- | --- | --- | --- | --- | --- | --- | --- | --- | --- | --- | --- | --- | --- |
| CC1(C)CCC(CN2CCN(c3ccc(C(=O)NS(=O)(=O)c4ccc(NCC5CCOCC5)c([N+](=O)[O-])c4)c(Oc4cnc5[nH]ccc5c4)c3)CC2)=C(c2ccc(Cl)cc2)C1 + CNCc1ccccc1-c1csc(C(C)Nc2nc(C)nc3cc(OC)c(OC)cc23)c1 | 5.79 | 5.83 | 5.85 | > 7.50 | > 7.50 | 72.6 | 68.1 | 70.6 | 71.3 | 22 | 10.7 | 69.5 | 63.9 | 61.2 | 70.2 | 17.9 | 8.6 | 69.4 | 77.7 | 62 | viability, T/C [16]: 64.3%; viability, T/C [17]: 18.3%; viability, T/C [18]: 2.9%; viability, T/C [19]: 0.33%; viability, T/C [20]: 0.44%; viability, T/C [21]: 0.44%; viability, T/C [22]: 2.14%; viability, T/C [23]: 1.73%; viability, T/C [24]: 0.34%; viability, T/C [25]: 0.43%; viability, T/C [26]: 0.89%; viability, T/C [27]: 0.6%; viability, T/C [28]: 0.39%; viability, T/C [29]: 2.18%; viability, T/C [30]: 0.44% |
| COc1cc2nccc(Oc3ccc(NC(=O)C4(C(=O)Nc5ccc(F)cc5)CC4)cc3)c2cc1OC + CNCc1ccccc1-c1csc(C(C)Nc2nc(C)nc3cc(OC)c(OC)cc23)c1 | < 5.00 | 6.27 | 6.71 | > 7.50 | > 7.50 | 78.2 | 66.5 | 56.8 | 49.6 | 33.1 | 88.5 | 65.8 | 58.8 | 51.8 | 39.6 | 27.2 | 75.7 | 55 | 58.2 | 45.4 | viability, T/C [16]: 27.8%; viability, T/C [17]: 23.1%; viability, T/C [18]: 38%; viability, T/C [19]: 0.31%; viability, T/C [20]: 0.25%; viability, T/C [21]: 0.87%; viability, T/C [22]: 0.11%; viability, T/C [23]: 0.21%; viability, T/C [24]: 0.7%; viability, T/C [25]: 0.63%; viability, T/C [26]: 0.38%; viability, T/C [27]: 0.97%; viability, T/C [28]: 0.33%; viability, T/C [29]: 2.44%; viability, T/C [30]: 0.91% |
